Assay results as given in PMC5584945, “Evaluation of robenidine analog NCL195 as a novel broad-spectrum antibacterial agent” (PLoS ONE, 2017).
In brackets after ≈: the same amount, converted by molar mass. Read-outs that look alike come from different tables or passages of the source.

Tests used:
S. aureus = test: MIC, broth micro-dilution (CLSI); format: cell-based, Staphylococcus aureus; conditions: for MIC / MIC50 / MIC90: Staphylococcus aureus
[1] = tested on: vancomycin-resistant enterococci (VRE); test: MIC, broth micro-dilution (CLSI); format: cell-based, enterococci (porcine isolates)
[2] = S2 Table isolates, absence of FBS
[3] = Enterococcus, VRE, S3 Table isolates, 10% FBS

SMILES: Cc1ccc(/C=N/Nc2cc(N/N=C/c3ccc(C)cc3)nc(N)n2)cc1 [NCL195, 4,6-bis(2-((E)-4-methylbenzylidene)hydrazinyl)pyrimidin-2-amine]
- Fold increase of MIC range in the presence of 10% FBS (S. aureus; 10% FBS versus no FBS): 4 fold
- MIC range (S. aureus; 23 isolates): 1 to 2 µg/mL
- MIC range (S. aureus; S2 Table isolates, 10% FBS): 4 to 8 µg/mL
- MIC range (S. aureus; [2]): 1 to 2 µg/mL
- Fold increase in MIC in the presence of serum (S. aureus; S. aureus 49775, human, horse or mouse serum): 4 fold
- MIC (S. aureus; ATCC 12600 / MSSA, ATCC12600 [Xen29] (MSSA), 10% FBS): 4 µg/mL (≈ 11.1 µM)
- MIC (S. aureus; ATCC 12600 / MSSA, ATCC12600 [Xen29] (MSSA), absence of FBS): 1 µg/mL (≈ 2.78 µM)
- MIC (S. aureus; ATCC 29213 / MSSA, ATCC29213 MSSA (ST5), 10% FBS, read-out: MIC): 8 µg/mL (≈ 22.3 µM)
- MIC (S. aureus; ATCC 29213 / MSSA, ATCC29213 MSSA (ST5), absence of FBS, read-out: MIC): 2 µg/mL (≈ 5.56 µM)
- MIC (S. aureus; ATCC 49775 / MSSA, ATCC 49775 (MSSA), 10% FBS, read-out: MIC): 8 µg/mL (≈ 22.3 µM)
- MIC (S. aureus; ATCC 49775 / MSSA, ATCC 49775 (MSSA), absence of FBS, read-out: MIC): 2 µg/mL (≈ 5.56 µM)
- MIC (S. aureus; IRISH 1 – HA-EMRSA (ST8), 10% FBS, read-out: MIC): 8 µg/mL (≈ 22.3 µM)
- MIC (S. aureus; IRISH 1 – HA-EMRSA (ST8), absence of FBS, read-out: MIC): 2 µg/mL (≈ 5.56 µM)
- MIC (S. aureus; IRISH 2 – HA-EMRSA (ST8), 10% FBS, read-out: MIC): 4 µg/mL (≈ 11.1 µM)
- MIC (S. aureus; IRISH 2 – HA-EMRSA (ST8), absence of FBS, read-out: MIC): 1 µg/mL (≈ 2.78 µM)
- MIC (S. aureus; MRSA / USA300, USA 300 - MRSA (ST8), 10% FBS, read-out: MIC): 8 µg/mL (≈ 22.3 µM)
- MIC (S. aureus; MRSA / USA300, USA 300 - MRSA (ST8), absence of FBS, read-out: MIC): 2 µg/mL (≈ 5.56 µM)
- MIC (S. aureus; MRSA, AUS2-MRSA (ST239), 10% FBS, read-out: MIC): 8 µg/mL (≈ 22.3 µM)
- MIC (S. aureus; MRSA, AUS2-MRSA (ST239), absence of FBS, read-out: MIC): 2 µg/mL (≈ 5.56 µM)
- MIC (S. aureus; MRSA, AUS3-MRSA (ST239), 10% FBS, read-out: MIC): 4 µg/mL (≈ 11.1 µM)
- MIC (S. aureus; MRSA, AUS3-MRSA (ST239), absence of FBS, read-out: MIC): 1 µg/mL (≈ 2.78 µM)
- MIC (S. aureus; MRSA, Classic–HA-MRSA (ST250), 10% FBS, read-out: MIC): 8 µg/mL (≈ 22.3 µM)
- MIC (S. aureus; MRSA, Classic–HA-MRSA (ST250), absence of FBS, read-out: MIC): 2 µg/mL (≈ 5.56 µM)
- MIC (S. aureus; MRSA, NY JAPAN – HA MRSA (ST5), 10% FBS, read-out: MIC): 4 µg/mL (≈ 11.1 µM)
- MIC (S. aureus; MRSA, NY JAPAN – HA MRSA (ST5), absence of FBS, read-out: MIC): 1 µg/mL (≈ 2.78 µM)
- MIC (S. aureus; MRSA, ST398–CA-MRSA-V (ST398), 10% FBS, read-out: MIC): 8 µg/mL (≈ 22.3 µM)
- MIC (S. aureus; MRSA, ST398–CA-MRSA-V (ST398), absence of FBS, read-out: MIC): 2 µg/mL (≈ 5.56 µM)
- MIC (S. aureus; MRSA, WA2–CA-MRSA (ST78), 10% FBS, read-out: MIC): 4 µg/mL (≈ 11.1 µM)
- MIC (S. aureus; MRSA, WA2–CA-MRSA (ST78), absence of FBS, read-out: MIC): 1 µg/mL (≈ 2.78 µM)
- MIC (S. aureus; MRSA, WA3–CA-MRSA (ST5), 10% FBS, read-out: MIC): 4 µg/mL (≈ 11.1 µM)
- MIC (S. aureus; MRSA, WA3–CA-MRSA (ST5), absence of FBS, read-out: MIC): 1 µg/mL (≈ 2.78 µM)
- MIC (S. aureus; MRSA, WA84–CA-MRSA (ST45), 10% FBS, read-out: MIC): 4 µg/mL (≈ 11.1 µM)
- MIC (S. aureus; MRSA, WA84–CA-MRSA (ST45), absence of FBS, read-out: MIC): 1 µg/mL (≈ 2.78 µM)
- MIC50 (S. aureus; S2 Table isolates, 10% FBS): 8 µg/mL (≈ 22.3 µM)
- MIC90 (S. aureus; S2 Table isolates, 10% FBS): 8 µg/mL (≈ 22.3 µM)
- MIC50 (S. aureus; [2]): 2 µg/mL (≈ 5.56 µM)
- MIC90 (S. aureus; [2]): 2 µg/mL (≈ 5.56 µM)
- MIC (S. aureus; TAIWAN PVL+ – CA-cMRSA (ST59), 10% FBS, read-out: MIC): 4 µg/mL (≈ 11.1 µM)
- MIC (S. aureus; TAIWAN PVL+ – CA-cMRSA (ST59), absence of FBS, read-out: MIC): 1 µg/mL (≈ 2.78 µM)
- MIC (S. aureus; UK 15 PVL+ – HA-EMRSA (ST22), 10% FBS, read-out: MIC): 8 µg/mL (≈ 22.3 µM)
- MIC (S. aureus; UK 15 PVL+ – HA-EMRSA (ST22), absence of FBS, read-out: MIC): 2 µg/mL (≈ 5.56 µM)
- MIC (S. aureus; UK 15 – HA-EMRSA (ST22), 10% FBS, read-out: MIC): 8 µg/mL (≈ 22.3 µM)
- MIC (S. aureus; UK 15 – HA-EMRSA (ST22), absence of FBS, read-out: MIC): 2 µg/mL (≈ 5.56 µM)
- MIC (S. aureus; UK 16 – HA- EMRSA (ST36), 10% FBS, read-out: MIC): 4 µg/mL (≈ 11.1 µM)
- MIC (S. aureus; UK 16 – HA- EMRSA (ST36), absence of FBS, read-out: MIC): 1 µg/mL (≈ 2.78 µM)
- MIC (S. aureus; UK 17 – HA-EMRSA (ST247), 10% FBS, read-out: MIC): 8 µg/mL (≈ 22.3 µM)
- MIC (S. aureus; UK 17 – HA-EMRSA (ST247), absence of FBS, read-out: MIC): 2 µg/mL (≈ 5.56 µM)
- Fold increase of MIC range in the presence of 10% FBS ([1]; 10% FBS versus no FBS): 4 fold
- MIC range ([1]; 20 isolates): 2 to 4 µg/mL
- MIC50 [1, 3]: 16 µg/mL (≈ 44.5 µM)
- MIC90 [1, 3]: 32 µg/mL (≈ 89 µM)
- MIC50 ([1]; Enterococcus, VRE, S3 Table isolates, absence of FBS): 2 µg/mL (≈ 5.56 µM)
